# Experimental data taken from article PMC10934261, “Designing Potent Anti-Cancer Agents: Synthesis and Molecular Docking Studies of Thieno[2,3-d][1,2,4]triazolo[1,5-a]pyrimidine Derivatives” (Molecules, 2024).
# Assays:
# [1] = test system: human breast MCF-7 cancer cell line; test: In vitro cytotoxic screening (MTT assay), MCF-7; format: cell-based; conditions: average ± standard deviation
# Experimental: (§1) Using human breast MCF-7, colorectal HCT-116, and prostate PC-3 cancer cell lines, preliminary antiproliferative effectiveness of cyclopenta[4,5]thieno[2,3-d][1,2,4]triazolo[1,5-a]pyrimidin-9(6H)-ones 4–16 was established in vitro through MTT assay at different concentrations (100, 50, 25 and 12.5 μM) (Figure 2).
# (§2) The cell lines were obtained from Karolinska Center, Department of Oncology and Pathology, Karolinska Institute and Hospital, Stockholm, Sweden. as follows: human breast MCF-7, colorectal HCT-116 and prostate PC-3 cancer cell lines and human skin normal BJ-1 cell line. Exponentially, cells were cultured at a concentration of 10^4 cells/well for 24 h, afterwards fresh medium containing different concentrations of the tested samples was added. Serial two-fold dilution of the tested samples were added using a multichannel pipette. Moreover, all cells were cultivated at 37 °C, 5% CO2 and 95% humidity. Also, incubation of control cells occurred at 37 °C. However, after incubation for 24 h different concentrations of samples (100, 50, 25 and 12.5 µM) were added and the incubation was continued for 48 h, then crystal violet solution 1% was added to each well for 0.5 h to examine the presence of viable cells. After rinsing the wells using water until stain free, 30% glacial acetic acid was added to all wells with shaking the plates on a Microplate reader (TECAN, Inc.) to measure the absorbance at a wavelength of 490 nm. The cytotoxicity was estimated by IC50 in μM, which is the concentration that inhibits 50% of growth of cancer cells. […]
# (§3) 1.1. In vitro cytotoxic screening
# (§4) The cell lines were obtained from Karolinska Center, Department of Oncology and Pathology, Karolinska Institute and Hospital, Stockholm, Sweden. as follows: human breast MCF-7, colorectal HCT-116 and prostate PC-3 cancer cell lines and human skin normal BJ-1 cell line. Exponentially, cells were placed in 10^4 cells/ well for 24 h, and then add fresh medium which containing different concentration of the tested sample. Serial two-fold dilution of the tested sample were added using a multichannel pipette. Moreover, all cells were cultivated at 37 °C, 5% CO2 and 95% humidity. Also, incubation of control cells occurred at 37 °C. However, after incubation for 24 h different concentrations of sample (100, 50, 25 and 12.5 µM) were added and continued the incubation for 48 h, then, add the crystal violet solution 1% to each well for 0.5 h to examine viable cells. Rinse the wells using water until no stain. After that, add 30% glacial acetic acid to all wells with shaking plates on Microplate reader (TECAN, Inc.) to measure the absorbance, using a test wavelength of 490 nm. Besides, compare the treated samples with the control cell. The cytotoxicity was estimated by IC50 in (μ M), the concentration that inhibits 50% of growth of cancer cell. […]
# (§5) The molecular docking simulation of the promising in vitro screened cyclopenta[4,5]thieno[2,3-d][1,2,4]triazolo[1,5-a]pyrimidin-9(6H)-ones 10b and 10e against EGFR and PI3K was done using the Molecular Operating Environment software (MOE-Dock) version 2014.0901. The co-crystallized structures of EGFR and PI3K kinases complexed with their native ligands, erlotinib and quinolone LXX, were downloaded from the protein data bank (PDB codes: 1M17 and 3L54, respectively). All minimizations were performed using MOE until an RMSD gradient of 0.05 kcal∙mol−1Å−1 with MMFF94x force field and the partial charges were automatically calculated. Preparation of the enzyme structures was done for molecular docking using Protonate 3D protocol with the default options in MOE. London dG scoring function and Triangle Matcher placement method were used in the docking protocol. Initially, the original ligands were re-docked into the active binding site of EGFR and PI3K kinases to assess the root-mean-square deviation values. Then, the docking studies of the newly targeted […]
# [2] = test system: human prostate PC-3 cancer cell line; test: In vitro cytotoxic screening (MTT assay), PC-3; format: cell-based; conditions: average ± standard deviation
# Experimental: as §1, §2, §3, §4, §5
# [3] = test system: human colorectal HCT-116 cancer cell line; test: In vitro cytotoxic screening (MTT assay), HCT-116; format: cell-based; conditions: average ± standard deviation
# Experimental: as §1, §2, §3, §4, §5
compound,measurement,setting,value
"COc1ccc(-c2nn3c(=O)c4c5c(sc4nc3[nH]2)CCC5)cc1 [Compound 10d, 2-(4-Methoxyphenyl)-7,8-dihydro-3H-cyclopenta[4,5]thieno[2,3-d][1,2,4]triazolo[1,5-a]pyrimidin-9(6H)-one]",Percentage cytotoxicity on MCF-7,[1]; 12.5 µM,12.7±2.1%
same,Percentage cytotoxicity on MCF-7,[1]; 25 µM,35.1±5.9%
same,Percentage cytotoxicity on MCF-7,[1]; 50 µM,47.3±8.5%
same,Percentage cytotoxicity on MCF-7,[1]; 100 µM,53.1±6.1%
same,Percentage cytotoxicity on PC-3,[2]; 12.5 µM,9.1±6.3%
same,Percentage cytotoxicity on PC-3,[2]; 25 µM,21.6±0.06%
same,Percentage cytotoxicity on PC-3,[2]; 50 µM,26.9±1.2%
same,Percentage cytotoxicity on PC-3,[2]; 100 µM,36.4±3.1%
same,Percentage cytotoxicity on HCT-116,[3]; 12.5 µM,0.0±0.005%
same,Percentage cytotoxicity on HCT-116,[3]; 25 µM,0.0±0.005%
same,Percentage cytotoxicity on HCT-116,[3]; 50 µM,0.0±0.005%
same,Percentage cytotoxicity on HCT-116,[3]; 100 µM,14.3±4.3%
same,melting point,,180 to 182 °C
"O=c1c2c3c(sc2nc2nc([C@@H](O)[C@@H](O)[C@H](O)[C@H](O)CO)[nH]n12)CCC3 [Compound 11c, 2-((1R,2R,3R,4R)-1,2,3,4,5-pentahydroxypentyl)-1,6,7,8-tetrahydro-9H-cyclopenta[4,5]thieno[2,3-d][1,2,4]triazolo[1,5-a]pyrimidin-9-one]",Percentage cytotoxicity on MCF-7,[1]; 12.5 µM,0.0±0.005%
same,Percentage cytotoxicity on MCF-7,[1]; 25 µM,0.0±0.005%
same,Percentage cytotoxicity on MCF-7,[1]; 50 µM,16.5±2.1%
same,Percentage cytotoxicity on MCF-7,[1]; 100 µM,38.7±1.5%
same,Percentage cytotoxicity on PC-3,[2]; 12.5 µM,0.0±0.005%
same,Percentage cytotoxicity on PC-3,[2]; 25 µM,0.0±0.005%
same,Percentage cytotoxicity on PC-3,[2]; 50 µM,0.0±0.005%
same,Percentage cytotoxicity on PC-3,[2]; 100 µM,8.5±4.5%
same,Percentage cytotoxicity on HCT-116,[3]; 12.5 µM,12.7±1.7%
same,Percentage cytotoxicity on HCT-116,[3]; 25 µM,19.5±3.7%
same,Percentage cytotoxicity on HCT-116,[3]; 50 µM,22.3±0.9%
same,Percentage cytotoxicity on HCT-116,[3]; 100 µM,20.6±5.4%
same,melting point,,> 300 °C
"O=c1c2c3c(sc2nc2[nH]c(-c4ccc([N+](=O)[O-])cc4)nn12)CCC3 [Compound 10c, 2-(4-Nitrophenyl)-3,6,7,8-tetrahydro-9H-cyclopenta[4,5]thieno[2,3-d][1,2,4]triazolo[1,5-a]pyrimidin-9-one]",Percentage cytotoxicity on MCF-7,[1]; 12.5 µM,8.18±1.01%
same,Percentage cytotoxicity on MCF-7,[1]; 25 µM,24.04±2.59%
same,Percentage cytotoxicity on MCF-7,[1]; 50 µM,25.97±1.28%
same,Percentage cytotoxicity on MCF-7,[1]; 100 µM,33.62±2.13%
same,Percentage cytotoxicity on PC-3,[2]; 12.5 µM,48.3±2.0%
same,Percentage cytotoxicity on PC-3,[2]; 25 µM,53.4±1.2%
same,Percentage cytotoxicity on PC-3,[2]; 50 µM,54.8±1.6%
same,Percentage cytotoxicity on PC-3,[2]; 100 µM,54.7±2.8%
same,Percentage cytotoxicity on HCT-116,[3]; 12.5 µM,20.2±2.9%
same,Percentage cytotoxicity on HCT-116,[3]; 25 µM,38.2±0.9%
same,Percentage cytotoxicity on HCT-116,[3]; 50 µM,39.4±0.9%
same,Percentage cytotoxicity on HCT-116,[3]; 100 µM,40.4±2.4%
same,melting point,,220 °C
"O=c1c2c3c(sc2nc2[nH]cnn12)CCC3 [Compound 4, 7,8-Dihydro-3H-cyclopenta[4,5]thieno[2,3-d][1,2,4]triazolo[1,5-a]pyrimidin-9(6H)-one]",Percentage cytotoxicity on MCF-7,[1]; 12.5 µM,31.5±5.7%
same,Percentage cytotoxicity on MCF-7,[1]; 25 µM,23.6±3.2%
same,Percentage cytotoxicity on MCF-7,[1]; 50 µM,35.5±4.4%
same,Percentage cytotoxicity on MCF-7,[1]; 100 µM,34.8±4.1%
same,Percentage cytotoxicity on PC-3,[2]; 12.5 µM,0.0±0.005%
same,Percentage cytotoxicity on PC-3,[2]; 25 µM,0.0±0.005%
same,Percentage cytotoxicity on PC-3,[2]; 50 µM,0.0±0.005%
same,Percentage cytotoxicity on PC-3,[2]; 100 µM,11.3±3.7%
same,Percentage cytotoxicity on HCT-116,[3]; 12.5 µM,0.0±0.005%
same,Percentage cytotoxicity on HCT-116,[3]; 25 µM,0.0±0.005%
same,Percentage cytotoxicity on HCT-116,[3]; 50 µM,0.0±0.005%
same,Percentage cytotoxicity on HCT-116,[3]; 100 µM,9.1±2.0%
same,melting point,,> 300 °C
"COc1ccc(-c2nn3c(=O)c4c5c(sc4nc3n2[C@@H]2O[C@H](COC(C)=O)[C@@H](OC(C)=O)[C@H](OC(C)=O)[C@H]2OC(C)=O)CCC5)cc1 [Compound 16, 2-(4-Methoxyphenyl)-3-(2,3,4,6-tetra-O-acetyl-β-D-glocopyranosyl)-7,8-dihydro-3H-cyclopenta[4,5]thieno[2,3-d][1,2,4]triazolo[1,5-a]pyrimidin-9(6H)-one]",Percentage cytotoxicity on MCF-7,[1]; 12.5 µM,0.0±0.005%
same,Percentage cytotoxicity on MCF-7,[1]; 25 µM,0.0±0.005%
same,Percentage cytotoxicity on MCF-7,[1]; 50 µM,0.0±0.005%
same,Percentage cytotoxicity on MCF-7,[1]; 100 µM,29.5±1.6%
same,Percentage cytotoxicity on PC-3,[2]; 12.5 µM,0.0±0.005%
same,Percentage cytotoxicity on PC-3,[2]; 25 µM,0.0±0.005%
same,Percentage cytotoxicity on PC-3,[2]; 50 µM,0.0±0.005%
same,Percentage cytotoxicity on PC-3,[2]; 100 µM,14.5±1.6%
same,Percentage cytotoxicity on HCT-116,[3]; 12.5 µM,0.0±0.005%
same,Percentage cytotoxicity on HCT-116,[3]; 25 µM,0.0±0.005%
same,Percentage cytotoxicity on HCT-116,[3]; 50 µM,0.0±0.005%
same,Percentage cytotoxicity on HCT-116,[3]; 100 µM,1.0±0.5%
same,melting point,,> 300 °C
"O=c1c2c3c(sc2nc2nc([C@H](O)[C@@H](O)[C@@H](O)[C@H](O)CO)[nH]n12)CCC3 [Compound 11b, 2-((1S,2R,3S,4R)-1,2,3,4,5-pentahydroxypentyl)-1,6,7,8-tetrahydro-9H-cyclopenta[4,5]thieno[2,3-d][1,2,4]triazolo[1,5-a]pyrimidin-9-one]",Percentage cytotoxicity on MCF-7,[1]; 12.5 µM,0.0±0.005%
same,Percentage cytotoxicity on MCF-7,[1]; 25 µM,0.0±0.005%
same,Percentage cytotoxicity on MCF-7,[1]; 50 µM,22.1±6.9%
same,Percentage cytotoxicity on MCF-7,[1]; 100 µM,39.4±8.3%
same,Percentage cytotoxicity on PC-3,[2]; 12.5 µM,0.0±0.005%
same,Percentage cytotoxicity on PC-3,[2]; 25 µM,0.0±0.005%
same,Percentage cytotoxicity on PC-3,[2]; 50 µM,0.0±0.005%
same,Percentage cytotoxicity on PC-3,[2]; 100 µM,12.7±3.8%
same,Percentage cytotoxicity on HCT-116,[3]; 12.5 µM,18.2±2.3%
same,Percentage cytotoxicity on HCT-116,[3]; 25 µM,16.1±1.6%
same,Percentage cytotoxicity on HCT-116,[3]; 50 µM,21.8±1.9%
same,Percentage cytotoxicity on HCT-116,[3]; 100 µM,18.7±7.6%
same,melting point,,> 300 °C
"CC(=O)OC[C@H]1O[C@@H](n2cnn3c(=O)c4c5c(sc4nc23)CCC5)[C@H](OC(C)=O)[C@@H](OC(C)=O)[C@@H]1OC(C)=O [Compound 14, 3-(2,3,4,6-Tetra-O-acetyl-β-d-glocopyranosyl)-7,8-dihydro-3H-cyclopenta-[4,5]thieno-[2,3-d][1,2,4]triazolo[1,5-a]pyrimidin-9(6H)-one]",Percentage cytotoxicity on MCF-7,[1]; 12.5 µM,0.0±0.005%
same,Percentage cytotoxicity on MCF-7,[1]; 25 µM,0.0±0.005%
same,Percentage cytotoxicity on MCF-7,[1]; 50 µM,0.0±0.005%
same,Percentage cytotoxicity on MCF-7,[1]; 100 µM,29.2±0.8%
same,Percentage cytotoxicity on PC-3,[2]; 12.5 µM,0.0±0.005%
same,Percentage cytotoxicity on PC-3,[2]; 25 µM,0.0±0.005%
same,Percentage cytotoxicity on PC-3,[2]; 50 µM,0.0±0.005%
same,Percentage cytotoxicity on PC-3,[2]; 100 µM,9.5±1.9%
same,Percentage cytotoxicity on HCT-116,[3]; 12.5 µM,0.0±0.005%
same,Percentage cytotoxicity on HCT-116,[3]; 25 µM,0.0±0.005%
same,Percentage cytotoxicity on HCT-116,[3]; 50 µM,0.0±0.005%
same,Percentage cytotoxicity on HCT-116,[3]; 100 µM,15.7±2.9%
same,melting point,,> 300 °C
